This note sets out measurements from patent publication US12312579B2, “Method for culturing H. pylori for future testing” (BioSherpa, LLC, priority 2019, dated 2025).

Assay [1] deals with Klebsiella oxytoca. Briefly: Antibiotic sensitivity (MIC) of Klebsiella oxytoca isolated from sputum, Example 2. Type of assay: cell-based. As to conditions: for Interps / MIC: Klebsiella oxytoca isolate from experimental sputum sample.
For assay [2], the system named is Staphylococcus aureus. Briefly: Antibiotic sensitivity (MIC) of original blood culture isolate, Example 3. The format is cell-based. As to conditions: Rare Colonies Staphylococcus aureus. On the procedure: While not being bound to a specific theory, the native bone may sequester sessile infection in biofilms, especially in relatively devitalized bone associated with vasculopathy. Incubation in mucolytic allows for breakdown of the biofilm and the glycerol broth allows for a nutritive environment to coax these recalcitrant organisms into a cultivable state.

Assay [3] concerns S. aureus. Description: Antibiotic sensitivity (MIC) of S. aureus grown from bone incubated in the transport system, Example 3. As to conditions: for MIC: unit assumed. Type of assay: cell-based, Staphylococcus aureus. How it is done:
FIG. 5L illustrates another view of the cultures. […] The sample was incubated for 24 hours at 37 degrees Celsius. […] While not being bound to a specific theory, the native bone may sequester sessile infection in biofilms, especially in relatively devitalized bone associated with vasculopathy. Incubation in mucolytic allows for breakdown of the biofilm and the glycerol broth allows for a nutritive environment to coax these recalcitrant organisms into a cultivable state.

The test system of assay [4] is S. aureus. Description: Antibiotic sensitivity (MIC) of 5/14 sputum culture isolate, Example 4. The format is cell-based, Staphylococcus aureus. As to conditions: 5/14 Sputum cx. The source says: (§1) The original culture taken on 5/5 (finalized on 5/7) was identical to a subsequent culture taken on 5/14 that only grew MRSA.
Assay [5] has as its system MRSA. Briefly: Antibiotic sensitivity (MIC) of 5/5 sputum culture isolate, Example 4. The format is cell-based, Staphylococcus aureus. As to conditions: 5/5 Sputum cx, Positive for MRSA.
Text: (§2) FIG. 5M illustrates the use of systems and methods to isolate MRSA in sputum allowing for faster initiation of anti-MRSA therapy and clinical cure. This patient was intubated for hypoxemia and pneumonia. The patient placed on ceftriaxone and azithromycin. The systems and methods allowed identification of MRSA in the patient's sputum.
as §1

For assay [6], the system named is S. Pneumoniae. Briefly: Antibiotic sensitivity pattern (MIC) of S. pneumoniae isolated from sputum, Example 1. The format is cell-based, Streptococcus pneumoniae. As to conditions: for Interpretation / MIC: S. pneumoniae isolate from experimental sputum sample; for MIC: unit assumed. The source says:
FIG. 5E illustrates the mucoid alpha Streptococcus only on the experimental sample is Streptococcus pneumonia. Streptococcus pneumoniae not isolated using standard methods.
The patient had invasive pneumococcal disease as noted by a positive Streptococcus pneumoniae urine antigen result. This sample is most impressive in that the systems and methods described herein allowed isolation of Streptococcus pneumoniae despite the patient being on ceftriaxone for two days at the time of collection. The isolate is sensitive to ceftriaxone according to the sensitivity pattern. S in the Interpretation column of the tables below indicates sensitivity, and R indicates resistance.

In assay [7] the test system is MRSA. Briefly: Clinical course of intubated patient with MRSA in sputum, Example 4. Type of assay: in vivo, human. To be noted: one patient, MRSA pneumonia, on ventilator.
Text: as §2
FIG. 5N illustrates the yellow colony in the experimental site is obvious. The patient decompensated clinically to the point of near death until proper MRSA antibiotic therapy was initiated. Hypoxemia worsened and oxygen requirements increased prior to MRSA therapy.

[8] abbreviates: 05 S. aureus, bone incubated 24 hours at 37 degrees Celsius.

Usually MIC stands for the lowest concentration that inhibits growth of the organism. A lower MIC goes with greater potency.

In brackets after ≈: the same amount, converted by molar mass.

In the case of `NCC[C@H](O)C(=O)N[C@@H]1C[C@H](N)[C@@H](O[C@H]2O[C@H](CN)[C@@H](O)[C@H](O)[C@H]2O)[C@H](O)[C@H]1O[C@H]1O[C@H](CO)[C@@H](O)[C@H](N)[C@H]1O` [Amikacin], in assay [1], the Interps result is reported as “S” and the MIC was at most 16 µg/mL.
For the compound `CC1(C)S[C@@H]2[C@H](NC(=O)[C@H](N)c3ccccc3)C(=O)N2[C@H]1C(=O)O` [Ampicillin], in assay [1], the Interps entry was “R” and the MIC is above 16 µg/mL.
For `Cc1nnc(SCC2=C(C(=O)O)N3C(=O)[C@@H](NC(=O)Cn4cnnn4)[C@H]3SC2)s1` [Cefazolin], the Interps entry in assay [1] is reported as “R”; in assay [2], “S”; in assay [3] (setting [8]), “S”; in assay [4] it was “R”; in assay [5] it was “R”. Also, the MIC in assay [1] was 8 µg/mL (≈ 17.6 µM); in assay [2], at most 4 µg/mL; in assay [3] (setting [8]), at most 4 µg/mL; in assay [4], 16 µg/mL (≈ 35.2 µM); in assay [5], 8 µg/mL (≈ 17.6 µM).
For the compound `CO/N=C(\C(=O)N[C@@H]1C(=O)N2C(C(=O)[O-])=C(C[N+]3(C)CCCC3)CS[C@H]12)c1csc(N)n1` [Cefepime], in assay [1], the Interps entry is “S” and the MIC is at most 2 µg/mL.
Regarding `CO/N=C(\C(=O)N[C@@H]1C(=O)N2C(C(=O)O)=C(COC(C)=O)CS[C@H]12)c1csc(N)n1` [Cefotaxime], in assay [1], the Interps result is reported as “S” and the MIC was at most 2 µg/mL.
In the case of `CO[C@@]1(NC(=O)Cc2cccs2)C(=O)N2C(C(=O)O)=C(COC(N)=O)CS[C@@H]21` [Cefoxitin], in assay [1], the Interps entry was “S” and the MIC was at most 8 µg/mL.
Take `CO/N=C(\C(=O)N[C@@H]1C(=O)N2C(C(=O)O)=C(CSc3nc(=O)c(=O)[nH]n3C)CS[C@H]12)c1csc(N)n1` [Ceftriaxone]: in assay [6], the “sensitivity of the isolate according to the sensitivity pattern” value is recorded as “sensitive”, the Interpretation entry was “S” and the minimal inhibitory concentration (MIC) is at most 0.25 µg/mL. In assay [1], the “sensitivity of the organism” value is listed as “sensitive”, the Interps result is listed as “S” and the MIC was at most 1 µg/mL.
Turning to `O=C(O)c1cn(C2CC2)c2cc(N3CCNCC3)c(F)cc2c1=O` [Ciprofloxacin], in assay [1], the Interps entry is “S” and the MIC is at most 1 µg/mL.
`CCC[C@@H]1C[C@@H](C(=O)N[C@@H]([C@H]2O[C@H](SC)[C@H](O)[C@@H](O)[C@H]2O)[C@H](C)Cl)N(C)C1` [Clindamycin]: in assay [6], the Interpretation result was “R”. The MIC in assay [6] is above 0.5 µg/mL; in assay [2] it was at most 0.25 µg/mL; in assay [3] (setting [8]), at most 0.25 µg/mL; in assay [4], above 4 µg/mL; in assay [5], above 4 µg/mL. For the same compound, the Interps entry is recorded as “S” in assay [2], “S” in assay [3] (setting [8]), “R” in assay [4] and “R” in assay [5].
Turning to `CCCCCCCCCC(=O)N[C@@H](Cc1c[nH]c2ccccc12)C(=O)N[C@H](CC(N)=O)C(=O)N[C@@H](CC(=O)O)C(=O)N[C@@H]1C(=O)NCC(=O)N[C@@H](CCCN)C(=O)N[C@@H](CC(=O)O)C(=O)N[C@H](C)C(=O)N[C@@H](CC(=O)O)C(=O)NCC(=O)N[C@H](CO)C(=O)N[C@@H]([C@H](C)CC(=O)O)C(=O)N[C@@H](CC(=O)c2ccccc2N)C(=O)O[C@@H]1C` [Daptomycin], in assay [2], the Interps entry is “S” and the MIC was found to be 0.5 µg/mL (≈ 0.309 µM). Further, in assay [3] (setting [8]), the Interps entry is recorded as “S” and the MIC was 0.5 µg/mL (≈ 0.309 µM).
Turning to `CC[C@H]1OC(=O)[C@H](C)[C@@H](O[C@H]2C[C@@](C)(OC)[C@@H](O)[C@H](C)O2)[C@H](C)[C@@H](O[C@@H]2O[C@H](C)C[C@H](N(C)C)[C@H]2O)[C@](C)(O)C[C@@H](C)C(=O)[C@H](C)[C@@H](O)[C@]1(C)O` [Erythromycin], in assay [6], the Interpretation result was “R” and the MIC is above 0.5 µg/mL.
As to `C[C@@H](O)[C@H]1C(=O)N2C(C(=O)O)=C(SCCN=CN)C[C@H]12` [Imipenem], in assay [1], the Interps result is recorded as “S” and the MIC is at most 0.5 µg/mL.
On to `C[C@H]1COc2c(N3CCN(C)CC3)c(F)cc3c(=O)c(C(=O)O)cn1c23` [Levofloxacin], for which, in assay [6], the Interpretation entry was “S” and the MIC worked out at 1 µg/mL (≈ 2.77 µM). In addition, in assay [1], the Interps result is reported as “S” and the MIC was at most 0.25 µg/mL.
`CC(=O)NC[C@H]1CN(c2ccc(N3CCOCC3)c(F)c2)C(=O)O1` [Linezolid]: the Interps result in assay [2], in assay [3] (24 h), in assay [4] and in assay [5] was “S” in each case. Further, the MIC in assay [2], in assay [3] (setting [8]), in assay [4] and in assay [5] was 2 µg/mL (≈ 5.93 µM) throughout. Besides, the “clinical outcome of therapy” value in assay [7] is given as “allowed the patient to come off the ventilator”.
Consider `C[C@@H](O)[C@H]1C(=O)N2C(C(=O)O)=C(S[C@@H]3CN[C@H](C(=O)N(C)C)C3)[C@H](C)[C@H]12` [Meropenem], for which, in assay [1], the Interps entry was “S” and the minimal inhibitory concentration (MIC) was at most 1 µg/mL.
In the case of `Cc1onc(-c2ccccc2)c1C(=O)N[C@@H]1C(=O)N2[C@@H]1SC(C)(C)[C@@H]2C(=O)O` [Oxacillin], the Interps entry in assay [2] is “S”; in assay [3] (24 h), “S”; in assay [4], “R”; in assay [5], “R”. For the same compound, the MIC is at most 0.25 µg/mL in assay [2], at most 0.25 µg/mL in assay [3] (setting [8]), above 2 µg/mL in assay [4] and above 2 µg/mL in assay [5].
Take `CO[C@H]1/C=C/O[C@@]2(C)Oc3c(C)c(O)c4c(O)c(c(/C=N/N5CCN(C)CC5)c(O)c4c3C2=O)NC(=O)/C(C)=C\C=C\[C@H](C)[C@H](O)[C@@H](C)[C@@H](O)[C@@H](C)[C@H](OC(C)=O)[C@@H]1C` [Rifampin]: the MIC in assay [3] (setting [8]), in assay [4] and in assay [5] was at most 1 µg/mL throughout. In addition, the Interps result in assay [3] (24 h), in assay [4] and in assay [5] was “S” each time.
`CN(C)[C@@H]1C(O)=C(C(N)=O)C(=O)[C@@]2(O)C(O)=C3C(=O)c4c(O)cccc4[C@@](C)(O)[C@H]3C[C@@H]12` [Tetracycline]: the Interps result in assay [1] is recorded as “S”; in assay [2], “R”; in assay [3] (setting [8]), “R”; in assay [4] it was “S”; in assay [5], “S”. Further, the figures for the MIC in assay [1], in assay [4] and in assay [5] were at most 4 µg/mL, at most 1 µg/mL and at most 1 µg/mL, respectively.
Turning to `NC[C@H]1O[C@H](O[C@H]2[C@H](O)[C@@H](O[C@H]3O[C@H](CO)[C@@H](O)[C@H](N)[C@H]3O)[C@H](N)C[C@@H]2N)[C@H](N)C[C@@H]1O` [Tobramycin], in assay [1], the Interps entry is “S” and the MIC is at most 1 µg/mL.
As to `CN[C@H](CC(C)C)C(=O)N[C@H]1C(=O)N[C@@H](CC(N)=O)C(=O)N[C@H]2C(=O)N[C@H]3C(=O)N[C@H](C(=O)N[C@H](C(=O)O)c4cc(O)cc(O)c4-c4cc3ccc4O)[C@H](O)c3ccc(c(Cl)c3)Oc3cc2cc(c3O[C@@H]2O[C@H](CO)[C@@H](O)[C@H](O)[C@H]2O[C@H]2C[C@](C)(N)[C@H](O)[C@H](C)O2)Oc2ccc(cc2Cl)[C@H]1O` [Vancomycin], the Interpretation result in assay [6] is recorded as “S”. The MIC in assay [6] was determined as 0.25 µg/mL (≈ 0.173 µM); in assay [2] it was 1 µg/mL (≈ 0.69 µM); in assay [3] (setting [8]), 1 µg/mL (≈ 0.69 µM); in assay [4] it was 2 µg/mL (≈ 1.38 µM); in assay [5], 2 µg/mL (≈ 1.38 µM). Besides, the Interps result in assay [2], in assay [3] (setting [8]), in assay [4] and in assay [5] was “S” throughout. The “clinical outcome of therapy” value in assay [7] is recorded as “allowed the patient to come off the ventilator”.
`CC[C@H]1OC(=O)[C@H](C)[C@@H](O[C@H]2C[C@@](C)(OC)[C@@H](O)[C@H](C)O2)[C@H](C)[C@@H](O[C@@H]2O[C@H](C)C[C@H](N(C)C)[C@H]2O)[C@](C)(O)C[C@@H](C)CN(C)[C@H](C)[C@@H](O)[C@]1(C)O` [azithromycin]: the “macrolide resistance of the isolate” value in assay [6] (inferred from macrolide resistance) was “resistant”.
On to Gentamicin, for which the Interps entry in assay [1], in assay [2], in assay [3] (setting [8]), in assay [4] and in assay [5] was “S” each time. The MIC in assay [1], in assay [2], in assay [3] (setting [8]), in assay [4] and in assay [5] was at most 1 µg/mL in each case.
With Penicillin, in assay [6], the Interpretation result is “S” and the MIC is at most 0.03 µg/mL.
